In patent EP1285918A1, “C7 Ester substituted taxanes as antitumor agents” (Florida State University Research Foundation, Inc., priority 2001, dated 2003):
Like-named read-outs stand apart in the source and are kept apart here.

Legend:
[1] = tested on: SKMES Human Lung Carcinoma Xenograft
Protocol: The antitumor compound was prepared in the following vehicle: 10% ethanol and 90% Liposyn III.
Female Nu/Nu mice (6-8 weeks of age; implanted with 1 mm^3 SKMES lung carcinoma fragments in the flank) were sorted into treatment groups of six mice each. SKMES size ranges and group mean SKMES size ranges were 126-448 mg and 238-241 mg, respectively. […] Treatments were administered as a single i.v. bolus on Day 1, and the study was terminated on Day 60.
The mean days of survival is the number of days after which a SKMES neoplasm reached a size of 2.0 g and the animal was euthanized. A complete response is obtained if the tumor is not palpable at the end of the study. A partial response is obtained if the tumor shrinks to a size smaller than its size on Day 1 of the study.

[2] = tested on: MX-1 Human Breast Carcinoma Xenograft; assay: In vivo evaluation of oral administration of antitumor compounds against MX-1 human breast carcinoma xenograft (Example 25)
Text: This study investigated the efficacy of various antitumor compounds when administered orally against the MX-1 human breast carcinoma xenograft.
(§1) The study was terminated on Day 63.

[3] = tested on: blood cell populations; assay: Effect of oral treatment on blood cell populations, body weight and tumor weight in MX-1 bearing mice (Example 25, Table 23); type: in vivo, nu/nu mice; details: 107 mg/kg single oral bolus
Protocol: as §1
In addition to survival and tumor regression responses, the effect of treatment on blood cell populations was assessed. The major effect of these antitumor compounds on blood cell populations was a marked reduction in the neutrophil cell number. As well, monocyte depletion correlated fairly well with neutrophil reduction for each antitumor compound. […] There was a correlation between antitumor activity and reduced neutrophil count. In general, toxicity (as determined by neutrophil depletion) and weight loss correlated with efficacy. Importantly, the toxicities observed with the very efficacious antitumor compounds were manageable and reversible; neutrophil count and body weight rebounded from their low points in just a few days. Table 23 summarizes the weight reduction, neutrophil and monocyte measurements on Day 4, with tumor weight reduction calculated at Day 18: Table 23

[4] = 15 mg/kg single i.v. bolus Day 1, 6 mice/group, study end Day 60
[5] = 62 mg/kg single i.v. bolus Day 1, 6 mice/group, study end Day 60
[6] = 108 mg/kg single i.v. bolus Day 1, 6 mice/group, study end Day 60
[7] = 154 mg/kg single i.v. bolus Day 1, 6 mice/group, study end Day 60
[8] = 107 mg/kg single oral bolus, 6 mice/group, study end Day 63

## CCC(=O)O[C@H]1C[C@H]2OC[C@@]2(OC(C)=O)[C@H]2[C@H](OC(=O)c3ccccc3)[C@]3(O)C[C@H](OC(=O)[C@H](O)[C@@H](NC(=O)OC(C)(C)C)c4cccs4)C(C)=C([C@@H](O)C(=O)[C@]12C)C3(C)C [Compound 1418]
[1]; [4]
  Survivors: 0
  Toxic Deaths: 0
[1]; [5]
  Survivors: 0
  Toxic Deaths: 0
[1]; 62 mg/kg single i.v. bolus Day 1, 6 mice/group, study end Day 60, days until tumor reached 2.0 g
  MDS (n): 35.3 ± 3.3 (6) days
[1]; [6]
  Survivors: 3
  Toxic Deaths: 0
[1]; [7]
  Survivors: 5
  Toxic Deaths: 0
[1]; SKMES, 1418 single i.v. bolus 62 mg/kg (Group 4), 2.0 g cut-off
  MDS: 35.3 days
[1]; iv, 15 mg/kg
  % Total Response: 0%
  Complete Responses: 0
  MDS (n): 21.2 ± 2.9 (6) days
  Partial Responses: 0
[1]; iv, 62 mg/kg
  % Total Response: 0%
  Complete Responses: 0
  Partial Responses: 0
[1]; iv, 108 mg/kg
  % Total Response: 50.0%
  Complete Responses: 1
  MDS (n): 40.6 ± 2.9 (3) days
  Partial Responses: 2
[1]; iv, 154 mg/kg
  % Total Response: 83.3%
  Complete Responses: 5
  Partial Responses: 0

## CCC(=O)O[C@H]1C[C@H]2OC[C@@]2(OC(C)=O)[C@H]2[C@H](OC(=O)c3ccccc3)[C@]3(O)C[C@H](OC(=O)[C@H](O)[C@H](C=C(C)C)NC(=O)OC(C)(C)C)C(C)=C([C@@H](O)C(=O)[C@]12C)C3(C)C [Compound 1351]
[2]; 107 mg/kg single oral bolus, 6 mice/group, on Day 5
  Maximum Weight Loss (Day): -9.1% (5)
[2]; [8]
  Partial Response: 0
  Stable Disease: 1
  Toxic Deaths: 0
[2]; 107 mg/kg single oral bolus, 6 mice/group, study end Day 63, days until tumor reached 1.5 g
  Mean Day of Survival (n): 46.2 ± 5.1 (5) days
[2]; MX-1, single oral bolus, doses of Table 22, Day 63
  survival compared to vehicle control mice: significant survival extensions
[2]; po, 107 mg/kg, 1512 h
  Complete Response: 0
[3]; Day 4
  Monocytes (K/µL): 0.088 K/µL
  Neutrophils (K/µL): 0.408 K/µL
[3]; reduction of monocytes, Day 4
  % Reduction: 8.3%
[3]; reduction of neutrophils, Day 4
  % Reduction: 55.2%
[3]; reduction of tumor weight at Day 18
  % Reduction: 85.9%
[3]; tumor weight at Day 18
  Weight: 122.1 mg
